Test results from ChEMBL document CHEMBL5465560, “Selectivity Literature for EUbOPEN Chemogenomic Library” (2024).

Key:
[1] = target: Ribosomal protein S6 kinase alpha-3 (Homo sapiens, UniProt P51812); test: Selectivity interaction (ActivX KiNativ screen (kinase selectivity in THP-1 cell lysates)) EUB0000639a RPS6KA3; type: subcellular; details: lysate, at 0.04 µM
OATP1B1 (SLCO1B1) = OATP1B1 (SLCO1B1) (Homo sapiens, UniProt Q9Y6L6); test: Selectivity interaction (Panel of kinases, GPCRs, ion channels and transporters (enzymatic assay)) EUB0000223bCl SLCO1B1; details: not told
Sequence of OATP1B1 (SLCO1B1) (Q9Y6L6 whole entry): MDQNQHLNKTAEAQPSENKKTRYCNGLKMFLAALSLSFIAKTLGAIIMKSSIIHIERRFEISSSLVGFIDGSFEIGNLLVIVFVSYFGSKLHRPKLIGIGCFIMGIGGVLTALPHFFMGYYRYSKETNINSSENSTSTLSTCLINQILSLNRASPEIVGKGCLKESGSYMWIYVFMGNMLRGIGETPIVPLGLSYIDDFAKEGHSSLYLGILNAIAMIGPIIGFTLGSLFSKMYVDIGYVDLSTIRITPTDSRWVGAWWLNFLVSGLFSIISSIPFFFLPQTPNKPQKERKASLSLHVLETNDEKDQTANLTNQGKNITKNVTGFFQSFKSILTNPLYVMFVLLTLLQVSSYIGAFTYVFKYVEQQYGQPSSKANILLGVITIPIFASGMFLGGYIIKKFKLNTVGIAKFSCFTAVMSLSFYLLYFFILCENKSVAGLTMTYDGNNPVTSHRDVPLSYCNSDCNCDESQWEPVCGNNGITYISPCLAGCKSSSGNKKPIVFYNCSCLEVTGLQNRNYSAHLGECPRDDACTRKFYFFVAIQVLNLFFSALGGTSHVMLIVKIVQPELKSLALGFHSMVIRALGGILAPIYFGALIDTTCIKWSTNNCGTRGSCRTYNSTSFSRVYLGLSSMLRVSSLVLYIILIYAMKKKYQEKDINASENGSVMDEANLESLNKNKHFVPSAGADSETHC

[2] = target: Mitogen-activated protein kinase kinase kinase kinase 1 (Homo sapiens) (UniProt Q92918); test: Selectivity interaction (KinomeScan (DiscoverX)) EUB0001079a MAP4K1; details: at 1 µM
Sequence of Mitogen-activated protein kinase kinase kinase kinase 1 (Homo sapiens) (Q92918 whole entry, looked up): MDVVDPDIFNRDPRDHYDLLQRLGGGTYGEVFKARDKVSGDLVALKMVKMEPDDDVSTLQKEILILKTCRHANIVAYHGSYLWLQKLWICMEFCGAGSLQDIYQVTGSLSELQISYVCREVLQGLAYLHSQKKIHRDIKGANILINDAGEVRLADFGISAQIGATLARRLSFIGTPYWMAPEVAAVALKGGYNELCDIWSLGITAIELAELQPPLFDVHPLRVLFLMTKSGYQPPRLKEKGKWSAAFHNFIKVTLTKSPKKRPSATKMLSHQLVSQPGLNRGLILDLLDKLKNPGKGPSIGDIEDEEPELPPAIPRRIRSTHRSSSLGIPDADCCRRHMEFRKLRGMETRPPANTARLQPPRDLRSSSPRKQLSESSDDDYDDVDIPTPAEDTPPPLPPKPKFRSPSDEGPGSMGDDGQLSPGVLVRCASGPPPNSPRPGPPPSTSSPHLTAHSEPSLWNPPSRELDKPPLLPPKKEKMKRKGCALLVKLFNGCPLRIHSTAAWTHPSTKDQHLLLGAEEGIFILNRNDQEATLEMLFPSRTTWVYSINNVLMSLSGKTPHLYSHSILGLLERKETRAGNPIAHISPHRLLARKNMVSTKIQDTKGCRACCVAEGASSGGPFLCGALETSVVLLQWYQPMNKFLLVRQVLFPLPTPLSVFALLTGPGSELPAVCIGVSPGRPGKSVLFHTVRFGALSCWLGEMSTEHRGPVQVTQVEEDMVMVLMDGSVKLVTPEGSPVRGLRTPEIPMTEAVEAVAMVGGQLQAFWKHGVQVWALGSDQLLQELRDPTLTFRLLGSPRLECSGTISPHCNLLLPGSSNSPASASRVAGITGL

[3] = target: T1, Homeodomain-interacting protein kinase 4 (Homo sapiens) (UniProt Q8NE63); test: Selectivity interaction (KinomeScan (DiscoverX)) EUB0001079a HIPK4; details: at 1 µM
T1 sequence (whole entry): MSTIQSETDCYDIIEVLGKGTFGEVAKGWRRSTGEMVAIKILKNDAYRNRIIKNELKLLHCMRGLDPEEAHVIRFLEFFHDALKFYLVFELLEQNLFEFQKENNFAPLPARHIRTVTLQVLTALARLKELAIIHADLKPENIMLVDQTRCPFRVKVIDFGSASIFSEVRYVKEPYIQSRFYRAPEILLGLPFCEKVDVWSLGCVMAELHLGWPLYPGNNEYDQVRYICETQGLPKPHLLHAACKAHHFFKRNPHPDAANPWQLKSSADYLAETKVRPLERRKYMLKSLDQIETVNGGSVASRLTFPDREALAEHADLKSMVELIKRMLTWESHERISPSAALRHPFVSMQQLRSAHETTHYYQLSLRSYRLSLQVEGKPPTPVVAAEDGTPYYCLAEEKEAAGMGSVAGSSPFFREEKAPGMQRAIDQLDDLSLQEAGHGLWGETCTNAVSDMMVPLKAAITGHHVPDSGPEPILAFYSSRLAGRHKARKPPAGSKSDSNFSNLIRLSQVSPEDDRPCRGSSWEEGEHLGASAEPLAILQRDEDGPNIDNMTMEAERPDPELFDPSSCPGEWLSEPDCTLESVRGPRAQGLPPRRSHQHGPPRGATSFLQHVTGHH

[4] = target: T2, Phosphatidylinositol 3-kinase C2 domain-containing subunit gamma (Homo sapiens) (UniProt O75747); test: Selectivity interaction (KinomeScan (DiscoverX)) EUB0000229b PIK3C2G; details: at 10 µM
T2 sequence (whole entry): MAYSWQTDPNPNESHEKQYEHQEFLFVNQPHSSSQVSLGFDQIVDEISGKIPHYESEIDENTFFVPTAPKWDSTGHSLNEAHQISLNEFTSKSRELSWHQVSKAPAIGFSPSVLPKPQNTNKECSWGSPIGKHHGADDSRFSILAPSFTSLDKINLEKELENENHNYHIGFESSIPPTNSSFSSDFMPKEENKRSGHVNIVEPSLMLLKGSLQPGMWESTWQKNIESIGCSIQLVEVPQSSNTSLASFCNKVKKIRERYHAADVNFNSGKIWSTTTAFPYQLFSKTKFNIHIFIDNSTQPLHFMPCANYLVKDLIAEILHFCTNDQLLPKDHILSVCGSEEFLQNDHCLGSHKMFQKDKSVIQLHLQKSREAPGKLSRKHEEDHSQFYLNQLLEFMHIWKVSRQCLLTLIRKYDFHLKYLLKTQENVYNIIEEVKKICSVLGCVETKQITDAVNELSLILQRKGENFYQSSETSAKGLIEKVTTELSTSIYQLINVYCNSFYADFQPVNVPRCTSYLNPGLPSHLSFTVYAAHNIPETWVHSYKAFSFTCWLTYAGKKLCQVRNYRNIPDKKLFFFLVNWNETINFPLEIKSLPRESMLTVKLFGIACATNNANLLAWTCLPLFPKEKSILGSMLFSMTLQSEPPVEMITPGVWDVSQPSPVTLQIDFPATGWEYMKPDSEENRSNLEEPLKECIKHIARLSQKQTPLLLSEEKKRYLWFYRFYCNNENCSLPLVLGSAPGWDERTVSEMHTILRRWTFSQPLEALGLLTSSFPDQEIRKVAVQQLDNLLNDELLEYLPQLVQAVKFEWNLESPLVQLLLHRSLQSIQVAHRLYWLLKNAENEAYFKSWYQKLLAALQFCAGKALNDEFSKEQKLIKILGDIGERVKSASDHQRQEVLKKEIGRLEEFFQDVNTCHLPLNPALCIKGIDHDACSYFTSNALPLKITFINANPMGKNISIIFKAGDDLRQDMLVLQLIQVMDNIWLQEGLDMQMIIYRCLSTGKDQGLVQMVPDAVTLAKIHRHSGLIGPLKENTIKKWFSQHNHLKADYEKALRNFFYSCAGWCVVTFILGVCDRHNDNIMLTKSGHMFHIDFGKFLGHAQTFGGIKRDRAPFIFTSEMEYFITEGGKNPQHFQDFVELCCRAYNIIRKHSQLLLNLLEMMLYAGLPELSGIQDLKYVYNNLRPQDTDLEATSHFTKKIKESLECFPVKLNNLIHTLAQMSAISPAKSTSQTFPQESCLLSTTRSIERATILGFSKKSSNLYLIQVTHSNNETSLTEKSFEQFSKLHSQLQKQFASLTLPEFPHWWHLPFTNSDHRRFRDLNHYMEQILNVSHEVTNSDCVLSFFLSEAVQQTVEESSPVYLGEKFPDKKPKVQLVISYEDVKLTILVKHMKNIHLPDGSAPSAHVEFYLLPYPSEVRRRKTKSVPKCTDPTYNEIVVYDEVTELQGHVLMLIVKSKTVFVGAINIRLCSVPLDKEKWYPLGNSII

[5] = target: Bone morphogenetic protein receptor type-1A (Homo sapiens, UniProt P36894); test: Selectivity interaction (KinomeScan (DiscoverX)) EUB0000092b BMPR1A; details: at 10 µM
Sequence of Bone morphogenetic protein receptor type-1A (P36894 whole entry): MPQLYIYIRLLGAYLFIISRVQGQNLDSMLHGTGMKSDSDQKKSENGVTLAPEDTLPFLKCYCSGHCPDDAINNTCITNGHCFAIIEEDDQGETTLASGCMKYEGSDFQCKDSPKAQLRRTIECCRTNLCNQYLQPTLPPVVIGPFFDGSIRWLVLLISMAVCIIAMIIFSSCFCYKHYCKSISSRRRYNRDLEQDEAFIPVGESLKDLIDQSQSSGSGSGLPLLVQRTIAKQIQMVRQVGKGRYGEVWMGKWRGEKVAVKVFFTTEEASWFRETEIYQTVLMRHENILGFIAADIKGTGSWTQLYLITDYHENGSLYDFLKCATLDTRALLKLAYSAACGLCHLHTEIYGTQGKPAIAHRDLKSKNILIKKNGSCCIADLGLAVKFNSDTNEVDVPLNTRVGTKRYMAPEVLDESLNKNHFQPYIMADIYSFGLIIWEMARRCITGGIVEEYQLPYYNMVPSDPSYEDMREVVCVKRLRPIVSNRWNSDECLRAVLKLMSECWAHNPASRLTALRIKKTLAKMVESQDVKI

Sequence of Ribosomal protein S6 kinase alpha-3 (P51812 whole entry): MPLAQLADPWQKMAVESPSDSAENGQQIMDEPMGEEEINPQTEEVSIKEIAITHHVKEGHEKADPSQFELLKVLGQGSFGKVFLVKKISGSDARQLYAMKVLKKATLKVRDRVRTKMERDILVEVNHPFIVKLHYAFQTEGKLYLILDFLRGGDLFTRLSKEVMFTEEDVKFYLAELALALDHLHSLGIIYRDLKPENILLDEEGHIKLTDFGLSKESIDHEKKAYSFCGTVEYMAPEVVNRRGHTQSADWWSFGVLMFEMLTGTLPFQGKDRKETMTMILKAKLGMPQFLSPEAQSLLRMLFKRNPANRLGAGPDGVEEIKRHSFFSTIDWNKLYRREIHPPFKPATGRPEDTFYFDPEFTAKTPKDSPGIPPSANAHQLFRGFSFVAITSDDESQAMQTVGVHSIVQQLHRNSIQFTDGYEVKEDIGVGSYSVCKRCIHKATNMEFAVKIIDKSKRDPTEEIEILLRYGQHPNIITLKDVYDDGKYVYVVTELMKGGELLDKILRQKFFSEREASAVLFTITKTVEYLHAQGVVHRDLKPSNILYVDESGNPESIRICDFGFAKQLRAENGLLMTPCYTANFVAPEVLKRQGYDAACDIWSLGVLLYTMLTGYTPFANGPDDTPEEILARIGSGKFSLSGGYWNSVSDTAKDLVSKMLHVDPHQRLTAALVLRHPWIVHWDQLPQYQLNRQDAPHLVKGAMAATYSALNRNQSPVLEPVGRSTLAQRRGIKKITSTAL

Question: Which % of inhibition [1] does the source give for `CC[C@@H]1[C@H](F)C(=O)N[C@@H]1COc1nccc2cc(C(N)=O)c(OC)cc12` [ZIMLOVISERTIB] here?
Answer: 2.8%

Question: For `COc1cc(C(=O)N2CC[C@@H](O)[C@@H](N)C2)cc2nc(-c3cc4ccccc4n3CC3CC3)n(C)c12`, which XC50 (OATP1B1 (SLCO1B1)) is on record?
Answer: 7.94 µM

Question: What does the source list for `Nc1cnc(N2CCc3cc(S(=O)(=O)Nc4c(F)cc(Cl)cc4F)cc(N4CCCC4=O)c32)nc1` [TP-020n]?
Answer: % of control [2]: 83%; % of control [3]: 100%

Question: Which % binding [4] does the source give for `COc1cc(N(C)c2ccnc3ccc(C(F)(F)F)cc23)cc(OC)c1OC` here?
Answer: 75%

Question: Which % of control [5] does the source give for `CCC(=O)N1CCN(c2ccc(-n3c(=O)ccc4cnc5ccc(-c6cnc7ccccc7c6)cc5c43)cc2C(F)(F)F)CC1` here?
Answer: 45%
